ChEMBL document CHEMBL3525955, “Glucuronidation of the red clover isoflavone irilone by liver microsomes from different species and human UDP-glucuronosyltransferases” (Drug Metab Dispos, 2011)

Tests used:
[1] = biological target: T1, UDP-glucuronosyltransferase 1A7 (Homo sapiens, UniProt Q9HAW7); experiment: Activity of human recombinant UGT1A7 assessed as intrinsic clearance incubated for 5 mins prior to UDPGA addition measured after 90 mins; assay type: ADME; conditions: recombinant enzyme, 1.5 h
T1 sequence (Q9HAW7 whole entry): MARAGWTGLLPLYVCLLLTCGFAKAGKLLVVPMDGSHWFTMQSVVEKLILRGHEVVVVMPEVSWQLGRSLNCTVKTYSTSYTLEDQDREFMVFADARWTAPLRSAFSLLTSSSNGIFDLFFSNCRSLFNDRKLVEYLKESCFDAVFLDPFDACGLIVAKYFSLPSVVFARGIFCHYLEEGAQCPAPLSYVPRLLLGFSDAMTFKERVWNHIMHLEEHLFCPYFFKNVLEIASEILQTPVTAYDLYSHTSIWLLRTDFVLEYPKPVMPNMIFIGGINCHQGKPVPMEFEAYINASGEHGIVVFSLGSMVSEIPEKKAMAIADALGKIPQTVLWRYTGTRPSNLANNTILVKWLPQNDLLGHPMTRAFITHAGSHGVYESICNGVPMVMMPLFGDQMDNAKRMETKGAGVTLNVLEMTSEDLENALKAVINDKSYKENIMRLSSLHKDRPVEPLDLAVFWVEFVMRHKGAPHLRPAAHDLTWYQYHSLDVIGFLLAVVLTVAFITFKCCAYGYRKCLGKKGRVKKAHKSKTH

[2] = Drug metabolism in pig liver microsomes assessed as substrate inhibition of IRI-O-4'-monoglucuronide formation incubated for 5 mins prior to UDPGA addition measured after 90 mins by Eadie-Hoftsee plot analysis; assay type: ADME, Sus scrofa
[3] = biological target: T2, UDP-glucuronosyltransferase 1A8 (Homo sapiens, UniProt Q9HAW9); experiment: Activity of human recombinant UGT1A8 assessed as intrinsic clearance incubated for 5 mins prior to UDPGA addition measured after 90 mins; assay type: ADME; conditions: recombinant enzyme, 1.5 h
T2 sequence (Q9HAW9 whole entry): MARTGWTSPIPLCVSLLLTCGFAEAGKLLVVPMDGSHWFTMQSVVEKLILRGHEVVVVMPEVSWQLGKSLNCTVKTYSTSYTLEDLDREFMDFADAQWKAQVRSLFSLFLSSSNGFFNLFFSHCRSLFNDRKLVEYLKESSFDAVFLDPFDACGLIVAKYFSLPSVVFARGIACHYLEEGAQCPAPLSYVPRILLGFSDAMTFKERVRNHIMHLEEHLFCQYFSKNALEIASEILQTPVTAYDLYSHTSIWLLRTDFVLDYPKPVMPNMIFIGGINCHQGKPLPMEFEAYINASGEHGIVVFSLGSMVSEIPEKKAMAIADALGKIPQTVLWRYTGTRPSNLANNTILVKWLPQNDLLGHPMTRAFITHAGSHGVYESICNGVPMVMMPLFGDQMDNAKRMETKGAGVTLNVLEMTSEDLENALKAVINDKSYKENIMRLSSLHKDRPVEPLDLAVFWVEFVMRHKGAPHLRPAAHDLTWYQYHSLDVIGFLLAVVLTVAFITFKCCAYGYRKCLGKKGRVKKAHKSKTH

[4] = biological target: T3, UDP-glucuronosyltransferase 1A9 (Homo sapiens, UniProt O60656); experiment: Activity of human recombinant UGT1A9 assessed as intrinsic clearance incubated for 5 mins prior to UDPGA addition measured after 90 mins; assay type: ADME; conditions: recombinant enzyme, 1.5 h
T3 sequence (O60656 whole entry): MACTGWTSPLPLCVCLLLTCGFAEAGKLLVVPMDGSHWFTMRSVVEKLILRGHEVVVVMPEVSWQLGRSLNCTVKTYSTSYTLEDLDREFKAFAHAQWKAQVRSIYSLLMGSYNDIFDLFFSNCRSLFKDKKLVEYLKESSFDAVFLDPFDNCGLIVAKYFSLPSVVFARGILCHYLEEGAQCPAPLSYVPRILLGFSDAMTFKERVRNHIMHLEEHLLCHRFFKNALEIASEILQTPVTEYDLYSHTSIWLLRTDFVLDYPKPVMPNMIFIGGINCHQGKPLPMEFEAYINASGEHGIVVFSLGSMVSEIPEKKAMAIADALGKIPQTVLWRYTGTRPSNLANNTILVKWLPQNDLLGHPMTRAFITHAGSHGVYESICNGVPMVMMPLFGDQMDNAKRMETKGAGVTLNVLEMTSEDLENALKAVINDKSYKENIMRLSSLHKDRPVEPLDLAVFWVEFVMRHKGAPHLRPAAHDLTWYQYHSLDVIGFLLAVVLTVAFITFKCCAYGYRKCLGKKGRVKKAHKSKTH

[5] = biological target: T4, UDP-glucuronosyltransferase 1A1 (Homo sapiens, UniProt P22309); experiment: Activity of human recombinant UGT1A1 assessed as intrinsic clearance incubated for 5 mins prior to UDPGA addition measured after 90 mins; assay type: ADME; conditions: recombinant enzyme, 1.5 h
T4 sequence (P22309 whole entry): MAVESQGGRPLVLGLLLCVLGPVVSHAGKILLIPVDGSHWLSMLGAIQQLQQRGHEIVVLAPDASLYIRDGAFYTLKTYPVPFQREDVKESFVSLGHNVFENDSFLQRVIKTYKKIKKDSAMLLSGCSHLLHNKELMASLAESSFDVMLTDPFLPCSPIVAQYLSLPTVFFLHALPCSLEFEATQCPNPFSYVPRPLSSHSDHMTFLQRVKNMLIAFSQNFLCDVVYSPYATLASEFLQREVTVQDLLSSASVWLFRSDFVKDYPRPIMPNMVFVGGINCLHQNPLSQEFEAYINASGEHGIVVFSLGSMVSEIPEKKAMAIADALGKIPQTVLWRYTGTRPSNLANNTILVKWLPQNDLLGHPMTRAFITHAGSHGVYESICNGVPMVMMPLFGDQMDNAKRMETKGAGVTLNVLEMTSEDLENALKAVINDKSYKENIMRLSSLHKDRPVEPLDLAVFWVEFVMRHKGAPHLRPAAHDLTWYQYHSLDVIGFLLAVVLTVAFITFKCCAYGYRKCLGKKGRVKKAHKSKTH

[6] = biological target: T5, UDP-glucuronosyltransferase 2B15 (Homo sapiens, UniProt P54855); experiment: Drug metabolism assessed as human recombinant UGT2B15-mediated glucuronidation incubated for 5 mins prior to UDPGA addition measured after 90 mins by HPLC-DAD analysis; assay type: ADME; conditions: recombinant enzyme, 1.5 h
T5 sequence (P54855 whole entry): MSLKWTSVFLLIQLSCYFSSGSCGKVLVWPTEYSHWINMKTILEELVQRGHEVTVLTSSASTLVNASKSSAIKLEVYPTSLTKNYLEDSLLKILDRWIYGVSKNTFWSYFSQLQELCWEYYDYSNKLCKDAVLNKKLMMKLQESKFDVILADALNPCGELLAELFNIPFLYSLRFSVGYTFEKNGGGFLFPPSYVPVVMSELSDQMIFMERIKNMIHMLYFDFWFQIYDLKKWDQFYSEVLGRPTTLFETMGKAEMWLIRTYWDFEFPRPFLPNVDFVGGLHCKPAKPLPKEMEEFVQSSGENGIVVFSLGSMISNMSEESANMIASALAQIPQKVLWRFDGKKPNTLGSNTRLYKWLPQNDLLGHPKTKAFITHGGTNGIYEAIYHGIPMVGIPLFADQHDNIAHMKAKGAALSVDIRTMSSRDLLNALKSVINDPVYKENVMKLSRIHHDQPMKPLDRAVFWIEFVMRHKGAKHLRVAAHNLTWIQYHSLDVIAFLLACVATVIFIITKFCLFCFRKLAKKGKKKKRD

- CL [1]: 3900 µL/min/mg
- Ki [2]: 49.1 µM
- CL [3]: 20200 µL/min/mg
- CL [4]: 53300 µL/min/mg
- CL [5]: 27200 µL/min/mg
- Drug metabolism [6]: metabolite_not_detected
Structure (SMILES): O=c1c(-c2ccc(O)cc2)coc2cc3c(c(O)c12)OCO3
